“Also recorded” adds a separate entry of the source. Read-outs that look alike come from different tables or passages of the source.
Legend:
[1] = system: rat spared nerve injury (SNI) model; assay type: in vivo
[2] = system: rat spared nerve injury (SNI) model; assay type: in vivo; remark: listed apart in the source
[3] = system: rat dorsal root ganglion (DRG) neurons; assay: Ouabain-induced increase in cytosolic Na+ (SBFI imaging) in DRG neurons; assay type: cell-based
[4] = system: naïve male SD rats; conditions: tat-CSM-1S by spinal delivery, over a 24 hour period
[5] = SNI rats, dose not given, p<0.05 vs BL-Post SNI

CN1CC[C@]23c4c5ccc(O)c4O[C@H]2[C@@H](O)C=C[C@H]3[C@H]1C5 [morphine]
antiallodynic effect in SNI (reference drugs) ([1]; rat, in vivo): Antiallodynic effects
antihyperalgesic effect in SNI (reference drugs) ([2]; rat, in vivo): Antihyperalgesic effects

NC1=N[C@H](O)[C@H]2[C@H]3O[C@]4(O)O[C@@H]([C@@H](O)[C@@]2(N1)[C@@H]4O)[C@]3(O)CO [tetrodotoxin]
ouabain-induced increase in [Na+]c [3]: inhibited; also recorded: attenuate

NCC1(CC(=O)O)CCCCC1 [gabapentin]
antiallodynic effect in SNI (reference drugs) [1, 5]: Antiallodynic effects
antihyperalgesic effect in SNI (reference drugs) [2, 5]: Antihyperalgesic effects
motor impairment / sedation on the rotarod [4]: decrease in the ability of naïve rats to remain on the rotating rod
motor impairment / sedation on the rotarod ([4]; listed as Gabapentin): significant sedation/motor impairment

Protox-II: a spider toxin that preferentially blocks NaV1.7 (YCQKWMWTCDSERKCCEGMVCRLWCKKKLW)
ouabain-induced increase in [Na+]c ([3]; 10 μM Protox-II, 1 mM ouabain): inhibited; also recorded: attenuate

From patent publication US10287334B2, “Non-narcotic CRMP2 peptides targeting sodium channels for chronic pain” (priority 2014, dated 2019)
